Measured values: ChEMBL document CHEMBL3885881, “DrugMatrix”

Organism: Rattus norvegicus
Assay: DrugMatrix - Regimen: Daily Repeat
Format: toxicity, organism-based, Sprague-Dawley
Design: regimen Daily Repeat, gender Male, age 6-8 weeks
Details: in vivo, po, route oral GAVAGE, vehicle .5 % CMC; for ABSOLUTE BASOPHIL / ABSOLUTE EOSINOPHIL / ABSOLUTE LYMPHOCYTE / ABSOLUTE MONOCYTE / ABSOLUTE SEGMENTED NEUTROPHIL / BASOPHIL / EOSINOPHIL / ERYTHROCYTE COUNT / HEMATOCRIT / HEMOGLOBIN / LEUKOCYTE COUNT / LYMPHOCYTE / MEAN CORPUSCULAR HEMOGLOBIN / MEAN CORPUSCULAR HEMOGLOBIN CONCENTRATION / MEAN CORPUSCULAR VOLUME / MONOCYTE / NEUTROPHIL / NUCLEATED RED BLOOD CELLS / PLATELET COUNT: tissue Blood; for ALANINE AMINOTRANSFERASE / ALBUMIN / ALKALINE PHOSPHATASE / ASPARTATE AMINOTRANSFERASE / BLOOD UREA NITROGEN / CARBON DIOXIDE / CHLORIDE / CHOLESTEROL / CREATINE PHOSPHOKINASE / CREATININE / GLUCOSE / LACTATE DEHYDROGENASE / LIPASE / PHOSPHORUS / POTASSIUM / SODIUM / TOTAL BILIRUBIN / TOTAL PROTEIN / URIC ACID: tissue Plasma
[1] = 4.5 mg/kg, 120 h, dose level Low, time 5 day
[2] = 10 mg/kg, 72 h, dose level High, time 3 day
[3] = 10 mg/kg, 120 h, dose level High, time 5 day

## CC(C(=O)O)c1ccc(-c2ccccc2)c(F)c1 (centres undefined) [FLURBIPROFEN]
[1]
  ABSOLUTE BASOPHIL: 0 CELLS/uL
  ABSOLUTE EOSINOPHIL: 147.67 CELLS/uL
  ABSOLUTE LYMPHOCYTE: 17510 CELLS/uL
  ABSOLUTE MONOCYTE: 77.67 CELLS/uL
  ABSOLUTE SEGMENTED NEUTROPHIL: 4798 CELLS/uL
  BASOPHIL: 0%
  EOSINOPHIL: 0.67%
  ERYTHROCYTE COUNT: 5.45 x10E6/uL
  HEMATOCRIT: 34.47%
  HEMOGLOBIN: 12.83 G/DL
  LEUKOCYTE COUNT: 22.53 x10E3/uL
  LYMPHOCYTE: 77.67%
  MEAN CORPUSCULAR HEMOGLOBIN: 23.53 pg
  MEAN CORPUSCULAR HEMOGLOBIN CONCENTRATION: 37.23 G/DL
  MEAN CORPUSCULAR VOLUME: 63.2 fL
  MONOCYTE: 0.33%
  NEUTROPHIL: 21.33%
  NUCLEATED RED BLOOD CELLS: 0 /100WBC
  PLATELET COUNT: 1825.67 x10E3/uL
  ALANINE AMINOTRANSFERASE: 45.67 u/L
  ALBUMIN: 3.93 G/DL
  ALKALINE PHOSPHATASE: 223.33 u/L
  ASPARTATE AMINOTRANSFERASE: 67.33 u/L
  BLOOD UREA NITROGEN: 14.67 mg/dL
  CARBON DIOXIDE: 27.67 mmol/L
  CHLORIDE: 100 MEQ/L
  CHOLESTEROL: 64.33 mg/dL
  CREATINE PHOSPHOKINASE: 204.67 u/L
  CREATININE: 0.18 mg/dL
  GLUCOSE: 162.67 mg/dL
  LACTATE DEHYDROGENASE: 109.33 u/L
  LIPASE: 8.67 u/L
  PHOSPHORUS: 11.9 mg/dL
  POTASSIUM: 6.47 MEQ/L
  SODIUM: 143.53 MEQ/L
  TOTAL BILIRUBIN: 0.17 mg/dL
  TOTAL PROTEIN: 5.73 G/DL
  URIC ACID: 2.47 mg/dL
[2]
  ABSOLUTE BASOPHIL: 0 CELLS/uL
  ABSOLUTE EOSINOPHIL: 156 CELLS/uL
  ABSOLUTE LYMPHOCYTE: 13184.67 CELLS/uL
  ABSOLUTE MONOCYTE: 124.67 CELLS/uL
  ABSOLUTE SEGMENTED NEUTROPHIL: 3134.67 CELLS/uL
  BASOPHIL: 0%
  EOSINOPHIL: 1%
  ERYTHROCYTE COUNT: 4.13 x10E6/uL
  HEMATOCRIT: 25.13%
  HEMOGLOBIN: 10 G/DL
  LEUKOCYTE COUNT: 16.6 x10E3/uL
  LYMPHOCYTE: 79.67%
  MEAN CORPUSCULAR HEMOGLOBIN: 24.27 pg
  MEAN CORPUSCULAR HEMOGLOBIN CONCENTRATION: 39.83 G/DL
  MEAN CORPUSCULAR VOLUME: 61.07 fL
  MONOCYTE: 0.67%
  NEUTROPHIL: 18.67%
  NUCLEATED RED BLOOD CELLS: 0 /100WBC
  PLATELET COUNT: 1131.67 x10E3/uL
  ALANINE AMINOTRANSFERASE: 16 u/L
  ALBUMIN: 2.13 G/DL
  ALKALINE PHOSPHATASE: 132.67 u/L
  ASPARTATE AMINOTRANSFERASE: 50 u/L
  BLOOD UREA NITROGEN: 12 mg/dL
  CARBON DIOXIDE: 23 mmol/L
  CHLORIDE: 104.33 MEQ/L
  CHOLESTEROL: 60 mg/dL
  CREATINE PHOSPHOKINASE: 459.67 u/L
  CREATININE: 0.11 mg/dL
  GLUCOSE: 149.33 mg/dL
  LACTATE DEHYDROGENASE: 200.33 u/L
  LIPASE: 7.33 u/L
  PHOSPHORUS: 10.17 mg/dL
  POTASSIUM: 6.66 MEQ/L
  SODIUM: 141.47 MEQ/L
  TOTAL BILIRUBIN: 0 mg/dL
  TOTAL PROTEIN: 3.97 G/DL
  URIC ACID: 1.6 mg/dL
[3]
  ABSOLUTE BASOPHIL: 0 CELLS/uL
  ABSOLUTE EOSINOPHIL: 295.67 CELLS/uL
  ABSOLUTE LYMPHOCYTE: 12633.33 CELLS/uL
  ABSOLUTE MONOCYTE: 394 CELLS/uL
  ABSOLUTE SEGMENTED NEUTROPHIL: 4310.33 CELLS/uL
  BASOPHIL: 0%
  EOSINOPHIL: 2%
  ERYTHROCYTE COUNT: 4.56 x10E6/uL
  HEMATOCRIT: 28.67%
  HEMOGLOBIN: 11 G/DL
  LEUKOCYTE COUNT: 17.63 x10E3/uL
  LYMPHOCYTE: 68.33%
  MEAN CORPUSCULAR HEMOGLOBIN: 24.17 pg
  MEAN CORPUSCULAR HEMOGLOBIN CONCENTRATION: 38.37 G/DL
  MEAN CORPUSCULAR VOLUME: 62.97 fL
  MONOCYTE: 1.67%
  NEUTROPHIL: 28%
  NUCLEATED RED BLOOD CELLS: 0.33 /100WBC
  PLATELET COUNT: 1559.67 x10E3/uL
  ALANINE AMINOTRANSFERASE: 29 u/L
  ALBUMIN: 2.7 G/DL
  ALKALINE PHOSPHATASE: 259.67 u/L
  ASPARTATE AMINOTRANSFERASE: 105.67 u/L
  BLOOD UREA NITROGEN: 16 mg/dL
  CARBON DIOXIDE: 25 mmol/L
  CHLORIDE: 100.67 MEQ/L
  CHOLESTEROL: 63.33 mg/dL
  CREATINE PHOSPHOKINASE: 164.67 u/L
  CREATININE: 0.13 mg/dL
  GLUCOSE: 140.33 mg/dL
  LACTATE DEHYDROGENASE: 138 u/L
  LIPASE: 8.33 u/L
  PHOSPHORUS: 11.9 mg/dL
  POTASSIUM: 6.44 MEQ/L
  SODIUM: 142.2 MEQ/L
  TOTAL BILIRUBIN: 0.1 mg/dL
  TOTAL PROTEIN: 5.03 G/DL
  URIC ACID: 1.63 mg/dL
